In the oligonucleotide strings, read from the 5' end, every base follows the letter of its sugar. An asterisk marks phosphorothioate; unmarked linkages are phosphodiester. Other units and linkages are bracketed, terminal groups are in braces. A string of capitals states the bases alone. l = locked nucleic acid (LNA); [5mC] = 5-methylcytosine; d = 2'-deoxy (DNA)
Assays:
Type in all cases: cell-based
Details in all cases: 25 nM
human EGFR mRNA = assay: Down-regulation of EGFR mRNA in transfected 15PC3 cells, real-time PCR
Protocol: (§1) 15PC3: The human prostate cancer cell line 15PC3 was cultured in DMEM (Sigma)+10% fetal bovine serum (FBS)+2 mM Glutamax I+gentamicin (25 μg/ml).
(§2) The cells were treated with oligonucleotides using the cationic liposome formulation LipofectAMINE 2000 (Gibco) as transfection vehicle. Cells were seeded in 6-well cell culture plates (NUNC) and treated when 80-90% confluent. Oligomer concentrations ranged from 1 nM to 25 nM final concentration. Formulation of oligomer-lipid complexes was carried out essentially as described by the manufacturer using serum-free OptiMEM (Gibco) and a final lipid concentration of 5 μg/mL LipofectAMINE 2000. Cells were incubated at 37° C. for 4 hours and treatment was stopped by removal of oligomer-containing culture medium. Cells were washed and serum-containing medium was added. After oligomer treatment, cells were allowed to recover for 20 hours before they were harvested for RNA analysis.
(§3) Total RNA was extracted from cells transfected as described above and using the Qiagen RNeasy kit (Qiagen cat. no. 74104) according to the manufacturer's instructions. First strand synthesis was performed using Reverse Transcriptase reagents from Ambion according to the manufacturer's instructions.
(§4) For each sample 0.5 μg total RNA was adjusted to (10.8 μl) with RNase free H2O and mixed with 2 μl random decamers (50 μM) and 4 μl dNTP mix (2.5 mM each dNTP) and heated to 70° C. for 3 min after which the samples were rapidly cooled on ice. After cooling the samples on ice, 2 μl 10× Buffer RT, 1 μl MMLV Reverse Transcriptase (100 U/μl) and 0.25 μl RNase inhibitor (10 U/μl) was added to each sample, followed by incubation at 42° C. for 60 min, heat inactivation of the enzyme at 95° C. for 10 min, and then cooling the sample to 4° C.
(§5) The sample content of human HER3, EGFR and HER2 mRNA was quantified using the human HER3, EGFR and HER2 ABI Prism Pre-Developed TaqMan Assay Reagents (Applied Biosystems cat. no. Hs00951444_ml (HER3), Hs00193306_ml (EGFR) and Hs00170433_ml (HER2) according to the manufacturer's instructions.
(§6) Glyceraldehyde-3-phosphate dehydrogenase (GAPDH) mRNA quantity was used as an endogenous control for normalizing any variance in sample preparation. The sample content of human GAPDH mRNA was quantified using the human GAPDH ABI Prism Pre-Developed TaqMan Assay Reagent (Applied Biosystems cat. no. 4310884E) according to the manufacturer's instructions.
(§7) The cDNA from the first strand synthesis performed as described in Example 5 was diluted 2-20 times, and analyzed by real time quantitative PCR using Taqman 7500 FAST or 7900 FAST from Applied Biosystems. The primers and probe were mixed with 2× Taqman Fast Universal PCR master mix (2×) (Applied Biosystems Cat. #4364103) and added to 4 μl cDNA to a final volume of 10 μl. Each sample was analysed in duplicate. Assaying 2-fold dilutions of a cDNA that had been prepared on material purified from a cell line expressing the RNA of interest generated standard curves for the assays. Sterile H2O was used instead of cDNA for the no-template control. PCR program: 95° C. for 30 seconds, followed by 40 cycles of 95° C., 3 seconds, 60° C., 20-30 seconds. Relative quantities of target mRNA sequence were determined from the calculated Threshold cycle using the Applied Biosystems Fast System SDS Software Version 1.3.1.21. or SDS Software Version 2.3.
(§8) Oligonucleotides presented in Table 4 were evaluated for their potential to down-regulate HER3, EGFR and HER2 mRNA at concentrations of 1, 5 and 25 nM in 15PC3 cells (or HUH-7 as indicated by *) (see FIGS. 2, 3, 4 and 5). SEQ ID NOs: 235 and 236 were used as scrambled controls.
(§9) The data in Table 4 are presented as percentage down-regulation of mRNA relative to mock transfected cells at 25 nM. Lower-case letters represent DNA monomers, bold, upper-case letters represent β-D-oxy-LNA monomers. All cytosines in LNA monomers are 5-methylcytosines. Subscript “s” represents a phosphorothioate linkage.

human HER2 mRNA = assay: Down-regulation of HER2 mRNA in transfected 15PC3 cells, real-time PCR
Protocol: as §1, §2, §3, §4, §5, §6, §7, §8, §9

human HER3 mRNA = assay: Down-regulation of HER3 mRNA in transfected 15PC3 cells, real-time PCR
Protocol: as §1, §2, §3, §4, §5, §6, §7, §8, §9

Row | Substance | EGFR: percentage down-regulation of mRNA relative to mock transfected cells (human EGFR mRNA) | HER2: percentage down-regulation of mRNA relative to mock transfected cells (human HER2 mRNA) | HER3: percentage down-regulation of mRNA relative to mock transfected cells (human HER3 mRNA)
1 | ASTSASgScStScScSaSgSaScSaSTSCSA (antisense lA*lT*lA*dG*dC*dT*dC*dC*dA*dG*dA*dC*dA*lT*l[5mC]*lA) [SEQ ID NO: 173, β-D-oxy-LNA/DNA phosphorothioate gapmer antisense oligonucleotide targeting HER3] | 96.4% | 39.2% | 
2 | GSCSCScSaSgScSaScStSaSaStSTSTSC (antisense lG*l[5mC]*l[5mC]*dC*dA*dG*dC*dA*dC*dT*dA*dA*dT*lT*lT*l[5mC]) [SEQ ID NO: 186, β-D-oxy-LNA/DNA phosphorothioate gapmer antisense oligonucleotide targeting HER3] |  |  | 79.9%
3 | CSASTSgStSaSgSaScSaStScSaSASTST (l[5mC]*lA*lT*dG*dT*dA*dG*dA*dC*dA*dT*dC*dA*lA*lT*lT; antisense) [SEQ ID NO: 179] | 52.6% | 75.6% | 70.5%
4 | CSASAStScSaStScScSaSaScSaSCSTST (antisense l[5mC]*lA*lA*dT*dC*dA*dT*dC*dC*dA*dA*dC*dA*l[5mC]*lT*lT) [SEQ ID NO: 177, β-D-oxy-LNA/DNA phosphorothioate gapmer antisense oligonucleotide targeting HER3] | 0% | 63.4% | 51.1%
5 | CSASTStScSaSaSgStStScStStSCSAST (antisense l[5mC]*lA*lT*dT*dC*dA*dA*dG*dT*dT*dC*dT*dT*l[5mC]*lA*lT) [SEQ ID NO: 184, β-D-oxy-LNA/DNA phosphorothioate gapmer antisense oligonucleotide targeting HER3] |  |  | 81.1%
6 | CSASTScScSaSaScSaScStStSgSASCSC (antisense l[5mC]*lA*lT*dC*dC*dA*dA*dC*dA*dC*dT*dT*dG*lA*l[5mC]*l[5mC]) [SEQ ID NO: 175, β-D-oxy-LNA/DNA phosphorothioate gapmer antisense oligonucleotide targeting HER3] | 86.1% | 76.9% | 65.5%
7 | TSCSASaStScSaStScScSaSaScSASCST (antisense lT*l[5mC]*lA*dA*dT*dC*dA*dT*dC*dC*dA*dA*dC*lA*l[5mC]*lT) [SEQ ID NO: 178, β-D-oxy-LNA/DNA phosphorothioate gapmer antisense oligonucleotide targeting HER3] | 0% | 88.6% | 76.7%
8 | CSASASgSgScStScSaScSaScSaSTSCST (antisense l[5mC]*lA*lA*dG*dG*dC*dT*dC*dA*dC*dA*dC*dA*lT*l[5mC]*lT) [SEQ ID NO: 182, β-D-oxy-LNA/DNA phosphorothioate gapmer antisense oligonucleotide targeting HER3] |  |  | 74.6%
9 | TSCSAScSaScScSaStSaSgScStSCSCSA (antisense lT*l[5mC]*lA*dC*dA*dC*dC*dA*dT*dA*dG*dC*dT*l[5mC]*l[5mC]*lA) [SEQ ID NO: 174, β-D-oxy-LNA/DNA phosphorothioate gapmer antisense oligonucleotide targeting HER3] | 86.4% | 94.8% | 
10 | ASTSCScSaSaScSaScStStSgSaSCSCSA (antisense lA*lT*l[5mC]*dC*dA*dA*dC*dA*dC*dT*dT*dG*dA*l[5mC]*l[5mC]*lA) [SEQ ID NO: 176, β-D-oxy-LNA/DNA phosphorothioate gapmer antisense oligonucleotide targeting HER3] | 79.4% | 74.8% | 61.6%
11 | CSASTSaScStScScStScSaStScSTSTSC (antisense l[5mC]*lA*lT*dA*dC*dT*dC*dC*dT*dC*dA*dT*dC*lT*lT*l[5mC]) [SEQ ID NO: 193, β-D-oxy-LNA/DNA phosphorothioate gapmer antisense oligonucleotide targeting HER3] |  |  | 64%
12 | CSASGSaScSaStScSaScStScStSGSGST (antisense l[5mC]*lA*lG*dA*dC*dA*dT*dC*dA*dC*dT*dC*dT*lG*lG*lT) [SEQ ID NO: 171, β-D-oxy-LNA/DNA phosphorothioate gapmer antisense oligonucleotide targeting HER3] | 84.2% | 2.8% | 70.6%
13 | CSTSCScSaSgSaScSaStScSaScSTSCST (antisense l[5mC]*lT*l[5mC]*dC*dA*dG*dA*dC*dA*dT*dC*dA*dC*lT*l[5mC]*lT) [SEQ ID NO: 170, β-D-oxy-LNA/DNA phosphorothioate gapmer antisense oligonucleotide targeting HER3] | 91.5% | 65.8% | 

Source: patent US20120076781A1, “METHODS OF TREATING CANCERS WITH HER3 ANTISENSE OLIGONUCLEOTIDES” (ENZON PHARMACEUTICALS, INC., priority 2009, published 2012)
